In publication PMC5218480 (PLoS ONE, 2017):

Test system: MV-4-11 cells
Assay: Gene expression microarray analysis (Affymetrix PrimeView) and GSEA
Type: cell-based, human
Design: RFU PODN (11730768_x_at) / Fold change /veh PODN (11730768_x_at) / RFU LINC00158 (11744669_a_at) / Fold change /veh LINC00158 (11744669_a_at) / RFU DUSP10 (11751237_a_at) / Fold change /veh DUSP10 (11751237_a_at) / RFU ID3 (11757404_x_at) / Fold change /veh ID3 (11757404_x_at) / RFU PLEKHG5 (11737974_s_at) / Fold change /veh PLEKHG5 (11737974_s_at) / RFU LRRC4B (11730491_at) / Fold change /veh LRRC4B (11730491_at) / RFU GIMAP4 (11747438_a_at) / Fold change /veh GIMAP4 (11747438_a_at) / RFU KRT8 (11758183_x_at) / Fold change /veh KRT8 (11758183_x_at) / RFU CNN1 (11734310_a_at) / Fold change /veh CNN1 (11734310_a_at) / RFU VPS37D (11726825_at) / Fold change /veh VPS37D (11726825_at) / RFU C10orf10 (11716522_x_at) / Fold change /veh C10orf10 (11716522_x_at) / RFU KIR2DL2 /// KIR2DL4 /// KIR2DL5A /// KIR2DL5B /// KIR2DS1 /// KIR2DS2 /// KIR2DS3 /// KIR2DS4 /// KIR3DL3 /// KIR3DL3 /// KIR3DS1 (11738374_at) / Fold change /veh KIR2DL2 /// KIR2DL4 /// KIR2DL5A /// KIR2DL5B /// KIR2DS1 /// KIR2DS2 /// KIR2DS3 /// KIR2DS4 /// KIR3DL3 /// KIR3DL3 /// KIR3DS1 (11738374_at) / RFU C1QL1 (11718748_at) / Fold change /veh C1QL1 (11718748_at) / RFU TMPRSS4 (11747572_a_at) / Fold change /veh TMPRSS4 (11747572_a_at) / RFU HAMP (11756126_x_at) / Fold change /veh HAMP (11756126_x_at) / RFU RNFT2 (11725882_a_at) / Fold change /veh RNFT2 (11725882_a_at) / RFU NR4A2 (11747474_a_at) / Fold change /veh NR4A2 (11747474_a_at) / RFU ABCC12 (11746883_a_at) / Fold change /veh ABCC12 (11746883_a_at) / RFU TMEM136 (11760407_x_at) / Fold change /veh TMEM136 (11760407_x_at) / RFU CLDN22 /// WWC2 (11732394_at) / Fold change /veh CLDN22 /// WWC2 (11732394_at) / RFU HLA-DPB1 (11760878_x_at) / Fold change /veh HLA-DPB1 (11760878_x_at) / RFU SPINT1 (11716480_a_at) / Fold change /veh SPINT1 (11716480_a_at) / RFU GAP43 (11754022_s_at) / Fold change /veh GAP43 (11754022_s_at) / RFU A4GNT (11735810_at) / Fold change /veh A4GNT (11735810_at) / RFU PRB3 (11715151_x_at) / Fold change /veh PRB3 (11715151_x_at) / RFU TUBB4B (11761932_at) / Fold change /veh TUBB4B (11761932_at) / RFU CAPN14 (11732068_a_at) / Fold change /veh CAPN14 (11732068_a_at) / RFU TMCC2 (11721928_a_at) / Fold change /veh TMCC2 (11721928_a_at) / RFU IRGQ (11745062_a_at) / Fold change /veh IRGQ (11745062_a_at) / RFU FAM174B (11720279_a_at) / Fold change /veh FAM174B (11720279_a_at) / RFU TMPRSS4 (11748680_a_at) / Fold change /veh TMPRSS4 (11748680_a_at) / RFU FAM212B (11763350_a_at) / Fold change /veh FAM212B (11763350_a_at) / RFU PLEKHG5 (11743358_a_at) / Fold change /veh PLEKHG5 (11743358_a_at) / RFU ZSCAN30 (11745921_a_at) / Fold change /veh ZSCAN30 (11745921_a_at) / RFU CMKLR1 (11741424_a_at) / Fold change /veh CMKLR1 (11741424_a_at) / RFU LOC101060620 /// MAPK8IP1 (11723275_at) / Fold change /veh LOC101060620 /// MAPK8IP1 (11723275_at) / RFU SPTSSB (11747773_x_at) / Fold change /veh SPTSSB (11747773_x_at) / RFU PRSS12 (11739890_at) / Fold change /veh PRSS12 (11739890_at) / RFU BIN1 (11741810_x_at) / Fold change /veh BIN1 (11741810_x_at) / RFU WNT11 (11732464_a_at) / Fold change /veh WNT11 (11732464_a_at) / RFU C10orf10 (11716521_a_at) / Fold change /veh C10orf10 (11716521_a_at) / RFU C5orf56 (11738089_at) / Fold change /veh C5orf56 (11738089_at) / RFU CYB561 (11721691_x_at) / Fold change /veh CYB561 (11721691_x_at) / RFU ANKRD19P (11752326_a_at) / Fold change /veh ANKRD19P (11752326_a_at) / RFU OR2T12 /// OR2T33 /// OR2T8 (11738714_s_at) / Fold change /veh OR2T12 /// OR2T33 /// OR2T8 (11738714_s_at) / RFU VCAN (11748164_a_at) / Fold change /veh VCAN (11748164_a_at) / RFU JSRP1 (11732532_at) / Fold change /veh JSRP1 (11732532_at) / RFU KRTAP10-11 (11738290_x_at) / Fold change /veh KRTAP10-11 (11738290_x_at) / RFU MYO3A (11730013_a_at) / Fold change /veh MYO3A (11730013_a_at) / RFU EBF3 (11725865_a_at) / Fold change /veh EBF3 (11725865_a_at) / RFU CAMK2N1 (11719241_x_at) / Fold change /veh CAMK2N1 (11719241_x_at) / RFU C5orf56 (11738088_a_at) / Fold change /veh C5orf56 (11738088_a_at) / RFU OLFML3 (11715873_a_at) / Fold change /veh OLFML3 (11715873_a_at) / RFU LOC100653217 /// NTM (11731650_a_at) / Fold change /veh LOC100653217 /// NTM (11731650_a_at) / RFU MAPK11 (11762145_a_at) / Fold change /veh MAPK11 (11762145_a_at) / RFU FIZ1 (11724087_x_at) / Fold change /veh FIZ1 (11724087_x_at) / RFU OASL (11726364_x_at) / Fold change /veh OASL (11726364_x_at) / RFU SOX15 (11748057_x_at) / Fold change /veh SOX15 (11748057_x_at) / RFU CD79A (11719716_a_at) / Fold change /veh CD79A (11719716_a_at) / RFU HIST1H1D (11736915_at) / Fold change /veh HIST1H1D (11736915_at) / RFU CASKIN2 (11723855_a_at) / Fold change /veh CASKIN2 (11723855_a_at) / RFU LOC730098 (11760151_x_at) / Fold change /veh LOC730098 (11760151_x_at) / RFU OR4N2 (11742367_at) / Fold change /veh OR4N2 (11742367_at) / RFU PRRT2 (11749266_a_at) / Fold change /veh PRRT2 (11749266_a_at) / RFU SNX32 (11753110_a_at) / Fold change /veh SNX32 (11753110_a_at) / RFU CDHR5 (11726645_a_at) / Fold change /veh CDHR5 (11726645_a_at) / RFU RCAN1 (11760418_a_at) / Fold change /veh RCAN1 (11760418_a_at) / RFU FAM167A (11723789_a_at) / Fold change /veh FAM167A (11723789_a_at) / RFU FAM26E (11764081_at) / Fold change /veh FAM26E (11764081_at) / RFU ISYNA1 (11749810_s_at) / Fold change /veh ISYNA1 (11749810_s_at) / RFU ACY1 (11761880_at) / Fold change /veh ACY1 (11761880_at) / RFU 11764098_at / Fold change /veh 11764098_at / RFU SAMD14 (11745864_x_at) / Fold change /veh SAMD14 (11745864_x_at) / RFU NPB (11741838_a_at) / Fold change /veh NPB (11741838_a_at) / RFU TMPRSS6 (11731388_a_at) / Fold change /veh TMPRSS6 (11731388_a_at) / RFU KRTAP10-2 (11738614_at) / Fold change /veh KRTAP10-2 (11738614_at) / RFU ARHGAP8 /// PRR5-ARHGAP8 (11727945_x_at) / Fold change /veh ARHGAP8 /// PRR5-ARHGAP8 (11727945_x_at) / RFU KRTAP5-7 /// NADSYN1 (11734609_at) / Fold change /veh KRTAP5-7 /// NADSYN1 (11734609_at) / RFU RASL12 (11751679_a_at) / Fold change /veh RASL12 (11751679_a_at) / RFU CDKN2B (11736163_a_at) / Fold change /veh CDKN2B (11736163_a_at) / RFU PRF1 (11729649_at) / Fold change /veh PRF1 (11729649_at) / RFU, ZNF638 /// ZNF638-IT1 / Fold change vs veh, ZNF638 /// ZNF638-IT1 / RFU, PANK3 / Fold change vs veh, PANK3 / RFU, SH3YL1 / Fold change vs veh, SH3YL1 / RFU, ZEB2 / Fold change vs veh, ZEB2 / RFU, NRIP1 / Fold change vs veh, NRIP1 / RFU, PTTG1IP / Fold change vs veh, PTTG1IP / RFU, CAPN2 / Fold change vs veh, CAPN2 / RFU, MED14 / Fold change vs veh, MED14 / RFU, SNORA58 / Fold change vs veh, SNORA58 / RFU, C1orf63 / Fold change vs veh, C1orf63 / RFU, LRRFIP1 / Fold change vs veh, LRRFIP1 / RFU, NDUFAF7 / Fold change vs veh, NDUFAF7 / RFU, SLC12A2 / Fold change vs veh, SLC12A2 / RFU, IBTK / Fold change vs veh, IBTK / RFU, ESF1 / Fold change vs veh, ESF1 / Fold change vs veh, TMEM50B / RFU, TAOK1 / Fold change vs veh, TAOK1 / RFU, ACBD3 / Fold change vs veh, ACBD3 / RFU, TMA16 / Fold change vs veh, TMA16 / RFU, RWDD3 / Fold change vs veh, RWDD3 / RFU, BCAT1 / Fold change vs veh, BCAT1 / RFU, EDEM3 / Fold change vs veh, EDEM3 / RFU, TMEM33 / Fold change vs veh, TMEM33 / RFU, WDR75 / Fold change vs veh, WDR75 / RFU, AHCTF1 / Fold change vs veh, AHCTF1 / RFU, TFRC / Fold change vs veh, TFRC / RFU, ZDHHC17 / Fold change vs veh, ZDHHC17 / RFU, NOM1 / Fold change vs veh, NOM1 / RFU, ARL8B / Fold change vs veh, ARL8B / RFU, ZBTB11 / Fold change vs veh, ZBTB11 / RFU, TAMM41 / Fold change vs veh, TAMM41 / RFU, KIAA1704 /// LOC100996395 / Fold change vs veh, KIAA1704 /// LOC100996395 / RFU, ING1 / Fold change vs veh, ING1 / RFU, TRMT61B / Fold change vs veh, TRMT61B / RFU, FUBP3 / Fold change vs veh, FUBP3 / RFU, TP53 / Fold change vs veh, TP53 / RFU, TNKS2 / Fold change vs veh, TNKS2 / RFU, ZFP14 / Fold change vs veh, ZFP14 / RFU, ACTR2 / Fold change vs veh, ACTR2 / RFU, PPP3R1 / Fold change vs veh, PPP3R1 / RFU, PIK3R1 / Fold change vs veh, PIK3R1 / RFU, HNRNPA1 / Fold change vs veh, HNRNPA1 / RFU, RNF170 / Fold change vs veh, RNF170 / RFU, ZNF28 / Fold change vs veh, ZNF28 / RFU, RNGTT / Fold change vs veh, RNGTT / RFU, OGT / Fold change vs veh, OGT / RFU, BRD1 / Fold change vs veh, BRD1 / RFU, MARS / Fold change vs veh, MARS / RFU, ZNF655 / Fold change vs veh, ZNF655 / RFU, FAHD1 / Fold change vs veh, FAHD1 / RFU, BDP1 / Fold change vs veh, BDP1 / RFU, LRRCC1 / Fold change vs veh, LRRCC1 / RFU, ARID1A / Fold change vs veh, ARID1A / RFU, ZNF146 / Fold change vs veh, ZNF146 / RFU, ZNF330 / Fold change vs veh, ZNF330 / RFU, GPN3 / Fold change vs veh, GPN3 / RFU, C9orf123 / Fold change vs veh, C9orf123 / RFU, N4BP2L2 / Fold change vs veh, N4BP2L2 / RFU, ARFIP1 / Fold change vs veh, ARFIP1 / RFU, FAM179B / Fold change vs veh, FAM179B / RFU, BCL10 / Fold change vs veh, BCL10 / RFU, UHRF1BP1L / Fold change vs veh, UHRF1BP1L / RFU, BET1 / Fold change vs veh, BET1 / RFU, CNOT2 / Fold change vs veh, CNOT2 / RFU, ZNF268 / Fold change vs veh, ZNF268 / Fold change vs veh, ZNF507 / RFU, DGCR2 / Fold change vs veh, DGCR2 / RFU, WDSUB1 / Fold change vs veh, WDSUB1 / Fold change vs veh, HSP90B1 /// MIR3652 / RFU, ADSS / Fold change vs veh, ADSS / RFU, GK / Fold change vs veh, GK / RFU, ZNF148 / Fold change vs veh, ZNF148 / RFU, TAF9 / Fold change vs veh, TAF9 / RFU, SLC1A5 / Fold change vs veh, SLC1A5 / RFU, SLMO2 / Fold change vs veh, SLMO2 / RFU, ABCC4 / Fold change vs veh, ABCC4 / RFU, LOC101060439 /// RAP1B / Fold change vs veh, LOC101060439 /// RAP1B / RFU, RFX7 / Fold change vs veh, RFX7 / RFU, GTPBP10 / Fold change vs veh, GTPBP10 / RFU, CNEP1R1 / Fold change vs veh, CNEP1R1 / RFU, BIVM-ERCC5 /// ERCC5 / Fold change vs veh, BIVM-ERCC5 /// ERCC5 / RFU, ILF3 / Fold change vs veh, ILF3 / RFU 11762660_at / Fold change /veh 11762660_at / RFU VCAN (11757783_s_at) / Fold change /veh VCAN (11757783_s_at) / RFU DDX43 (11728927_at) / Fold change /veh DDX43 (11728927_at) / RFU KRT8 (11758188_x_at) / Fold change /veh KRT8 (11758188_x_at) / RFU NKD1 (11759106_at) / Fold change /veh NKD1 (11759106_at) / RFU SRD5A1 (11742802_a_at) / Fold change /veh SRD5A1 (11742802_a_at) / RFU TPSAB1 /// TPSB2 (11721975_s_at) / Fold change /veh TPSAB1 /// TPSB2 (11721975_s_at) / RFU GSTM3 (11746129_a_at) / Fold change /veh GSTM3 (11746129_a_at) / RFU IL23R (11737362_x_at) / Fold change /veh IL23R (11737362_x_at) / RFU TMEM51 (11727254_a_at) / Fold change /veh TMEM51 (11727254_a_at) / RFU PIWIL2 (11732686_x_at) / Fold change /veh PIWIL2 (11732686_x_at) / RFU ORM1 (11744905_x_at) / Fold change /veh ORM1 (11744905_x_at) / RFU CCDC152 (11743942_at) / Fold change /veh CCDC152 (11743942_at) / RFU ECM1 (11717891_a_at) / Fold change /veh ECM1 (11717891_a_at) / RFU IL23R (11748794_a_at) / Fold change /veh IL23R (11748794_a_at) / RFU TNFAIP8L3 (11732012_x_at) / Fold change /veh TNFAIP8L3 (11732012_x_at) / RFU MBOAT4 (11741988_at) / Fold change /veh MBOAT4 (11741988_at) / RFU 11764193_at / Fold change /veh 11764193_at / RFU TMEM53 (11763286_at) / Fold change /veh TMEM53 (11763286_at) / RFU MAGEB2 (11727129_at) / Fold change /veh MAGEB2 (11727129_at) / RFU TMEM200A (11744735_a_at) / Fold change /veh TMEM200A (11744735_a_at) / RFU CCDC152 (11751479_a_at) / Fold change /veh CCDC152 (11751479_a_at) / RFU FAM211A (11726209_a_at) / Fold change /veh FAM211A (11726209_a_at) / RFU RGS16 (11746705_a_at) / Fold change /veh RGS16 (11746705_a_at) / RFU VCAN (11755009_s_at) / Fold change /veh VCAN (11755009_s_at) / RFU RHOB (11743442_s_at) / Fold change /veh RHOB (11743442_s_at) / RFU RGS16 (11720943_a_at) / Fold change /veh RGS16 (11720943_a_at) / RFU RGS16 (11720944_at) / Fold change /veh RGS16 (11720944_at) / RFU, VPS4B / Fold change vs veh, VPS4B / RFU, CREB1 / Fold change vs veh, CREB1 / RFU, DNAJC13 / Fold change vs veh, DNAJC13 / RFU, GNAQ / Fold change vs veh, GNAQ / RFU, CDK5R1 / Fold change vs veh, CDK5R1 / RFU, ZRANB3 / Fold change vs veh, ZRANB3 / RFU, CUL4A / Fold change vs veh, CUL4A / RFU, CCNY / Fold change vs veh, CCNY / RFU, UFL1 / Fold change vs veh, UFL1 / RFU, COG3 / Fold change vs veh, COG3 / RFU, DIAPH2 / Fold change vs veh, DIAPH2 / RFU, SKA2 / Fold change vs veh, SKA2 / RFU, AFF3 / Fold change vs veh, AFF3 / RFU, LMF1 / Fold change vs veh, LMF1 / RFU, IPO11 / Fold change vs veh, IPO11 / RFU, DFFB / Fold change vs veh, DFFB / RFU, FOXP1 / Fold change vs veh, FOXP1 / RFU, CARD8 / Fold change vs veh, CARD8 / RFU, STRN3 / Fold change vs veh, STRN3 / RFU, ADK / Fold change vs veh, ADK / RFU, RASSF2 / Fold change vs veh, RASSF2 / RFU, WIPF1 / Fold change vs veh, WIPF1 / RFU, LARP1B / Fold change vs veh, LARP1B / RFU, RASA1 / Fold change vs veh, RASA1 / RFU, RB1 / Fold change vs veh, RB1 / RFU, PPFIA1 / Fold change vs veh, PPFIA1 / RFU, MAT2A / Fold change vs veh, MAT2A / RFU, CCT5 / Fold change vs veh, CCT5 / RFU, WDR92 / Fold change vs veh, WDR92 / RFU, CUX1 / Fold change vs veh, CUX1 / RFU, TTC7A / Fold change vs veh, TTC7A / RFU, TMEM135 / Fold change vs veh, TMEM135 / RFU, DEPTOR / Fold change vs veh, DEPTOR / RFU, CPM / Fold change vs veh, CPM / RFU, DNAJB6 / Fold change vs veh, DNAJB6 / RFU, CACNA2D3 / Fold change vs veh, CACNA2D3 / RFU, DTX4 / Fold change vs veh, DTX4 / RFU, TFCP2 / Fold change vs veh, TFCP2 / RFU, GMCL1 /// GMCL1P1 / Fold change vs veh, GMCL1 /// GMCL1P1 / RFU, AEBP2 / Fold change vs veh, AEBP2 / RFU, SNHG1 /// SNORD22 /// SNORD25 /// SNORD26 /// SNORD27 /// SNORD28 /// SNORD29 /// SNORD31 / Fold change vs veh, SNHG1 /// SNORD22 /// SNORD25 /// SNORD26 /// SNORD27 /// SNORD28 /// SNORD29 /// SNORD31 / Fold change (Aza/veh), C12orf56 (ProbeSet 11735607_a_at) / Fold change (ACY-1035/veh), C12orf56 (ProbeSet 11735607_a_at) / Fold change (Aza/veh), FGFR1OP (ProbeSet 11751329_s_at) / Fold change (ACY-1035/veh), FGFR1OP (ProbeSet 11751329_s_at) / Fold change (Aza/veh), VPS36 (ProbeSet 11739960_a_at) / Fold change (ACY-1035/veh), VPS36 (ProbeSet 11739960_a_at) / RFU SYPL1 (11715823_x_at) / Fold change /veh SYPL1 (11715823_x_at) / RFU IGFBP7 (11715501_s_at) / Fold change /veh IGFBP7 (11715501_s_at) / RFU REEP3 (11722064_at) / Fold change /veh REEP3 (11722064_at) / RFU IGLL1 (11728026_x_at) / Fold change /veh IGLL1 (11728026_x_at): dose or concentration left out as unconfirmed
Settings: ProbeSet 11732154_at; LIST B

Nc1ccc(-c2cccs2)cc1NC(=O)c1ccc2c(c1)cc(C1CC1)n2CCN1CCOCC1 [ACY-1035]
RFU, OGT: 340.88 RFU
